Laboratory results published in the CheMixHub viscosity set.
Several values for one entry are separate records, joined by “and”; a condition that tells them apart may be missing. Identical values can stand only once.

Key:
[1] = xn = mol fraction of the nth substance listed

Nc1ccccc1
Conditions	viscosity
293.15 K, 100 kPa	4.407 mPa·s and 4.41 mPa·s
293.15 K, 101 kPa	4.28 mPa·s and 4.28 mPa·s
293.15 K, 101.33 kPa	4.404 mPa·s
293.35 K, 101 kPa	4.26 mPa·s
298.15 K, 100 kPa	3.737 mPa·s
298.15 K, 101.3 kPa	3.61 mPa·s
298.15 K, 101.32 kPa	3.773 mPa·s
298.15 K, 101.33 kPa	3.62 mPa·s
302.4 K, 101 kPa	5.537 mPa·s
302.75 K, 101 kPa	3.15 mPa·s
303 K, 101 kPa	3.097 mPa·s
303 K, 101.3 kPa	3.111 mPa·s
303 K, 101.33 kPa	3.036 mPa·s and 3.035 mPa·s
303.15 K, 100 kPa	3.197 mPa·s and 3.029 mPa·s
303.15 K, 101.33 kPa	3.078 mPa·s
308 K, 101 kPa	2.663 mPa·s
308 K, 101.3 kPa	2.691 mPa·s
308.1 K, 101 kPa	2.79 mPa·s
308.15 K, 100 kPa	2.78 mPa·s
308.15 K, 101 kPa	2.857 mPa·s and 2.639 mPa·s
308.15 K, 101.3 kPa	2.7 mPa·s
308.15 K, 101.33 kPa	2.615 mPa·s
313 K, 101 kPa	2.329 mPa·s
313 K, 101.3 kPa	2.338 mPa·s
313.15 K, 100 kPa	2.445 mPa·s and 2.305 mPa·s and 2.49 mPa·s
313.15 K, 101.33 kPa	2.327 mPa·s
318 K, 101 kPa	2.057 mPa·s
318 K, 101.3 kPa	2.054 mPa·s
318.15 K, 100 kPa	2.159 mPa·s
318.15 K, 101 kPa	2.157 mPa·s and 2.047 mPa·s and 2.113 mPa·s
323.15 K, 100 kPa	1.927 mPa·s
323.15 K, 101 kPa	1.806 mPa·s
323.15 K, 101.3 kPa	1.87 mPa·s
323.15 K, 101.33 kPa	2.01 mPa·s

COP(=O)([O-])OC.Cn1cc[n+](C)c1
viscosity [mPa·s]
Conditions	293.15 K	298.15 K	303.15 K	308.15 K	313.15 K	318.15 K	323.15 K
101 kPa	415.9	290.8	210.1	155.6	119.2	92.77	74.24
101.33 kPa	–	–	–	139.5	–	–	–

CC(C)(C)O
Conditions	viscosity
293.15 K, 101 kPa	3.925 mPa·s
298 K, 101 kPa	3.41 mPa·s and 4.324 mPa·s
298.15 K, 100 kPa	4.396 mPa·s
303 K, 101.33 kPa	3.268 mPa·s
303.15 K, 101.3 kPa	3.318 mPa·s and 3.318 mPa·s
303.2 K, 101.33 kPa	3.333 mPa·s and 3.333 mPa·s
305 K, 101 kPa	3.076 mPa·s
308 K, 101 kPa	2.333 mPa·s
308.15 K, 101.3 kPa	2.55 mPa·s
308.15 K, 101.33 kPa	2.644 mPa·s and 2.595 mPa·s and 2.546 mPa·s
313 K, 101 kPa	2.102 mPa·s
313.15 K, 101.3 kPa	2.047 mPa·s
318 K, 101 kPa	1.702 mPa·s
318.15 K, 101.33 kPa	1.889 mPa·s and 1.726 mPa·s
323 K, 101 kPa	1.404 mPa·s
323.15 K, 100 kPa	1.418 mPa·s
323.15 K, 101 kPa	1.421 mPa·s and 1.423 mPa·s and 1.415 mPa·s

CCCCCCCCNCCCCCCCC
Conditions	viscosity [mPa·s]
303.15 K, 101 kPa	3.665

CCC(O)CO (stereo unspecified)
viscosity [mPa·s]
Conditions	298.15 K	303.15 K	308.15 K	313.15 K	318.15 K	323.15 K
100 kPa	51.63	37.66	28.44	21.59	16.74	13.22
101 kPa	52.8	38.71	29.48	22.86	–	12.85

COCCOCCOCCO
viscosity
Conditions	293.15 K	298.15 K	303.15 K	308.15 K	313.15 K	318.15 K	323.15 K
101 kPa	7.211 mPa·s	6.287 mPa·s and 6.254 mPa·s	5.412 mPa·s	4.535 mPa·s	–	3.726 mPa·s	–
101.33 kPa	–	–	–	4.642 mPa·s and 5.055 mPa·s	4.074 mPa·s and 4.08 mPa·s	–	3.202 mPa·s and 3.2 mPa·s

CN(CCO)CCO
viscosity
Conditions	293.15 K	298.15 K	313.15 K	323.15 K
101 kPa	101.2 mPa·s	74.81 mPa·s	37.9 mPa·s and 34.04 mPa·s	24.7 mPa·s and 21.53 mPa·s
101.33 kPa	–	77.19 mPa·s and 77.19 mPa·s	–	–

Nc1ccccc1 + CCCCO
[1]
Conditions	viscosity [mPa·s]
298.15 K, 101 kPa, x1 = 0.09983	2.368
298.15 K, 101 kPa, x1 = 0.1935	2.278
298.15 K, 101 kPa, x1 = 0.3051	2.249
298.15 K, 101 kPa, x1 = 0.4055	2.287
298.15 K, 101 kPa, x1 = 0.4837	2.343
298.15 K, 101 kPa, x1 = 0.6005	2.474
298.15 K, 101 kPa, x1 = 0.6946	2.637
298.15 K, 101 kPa, x1 = 0.8028	2.899
298.15 K, 101 kPa, x1 = 0.8996	3.231
303 K, 101.33 kPa, x1 = 0.1	2.031
303 K, 101.33 kPa, x1 = 0.2	1.975
303 K, 101.33 kPa, x1 = 0.3	1.951
303 K, 101.33 kPa, x1 = 0.4	1.938
303 K, 101.33 kPa, x1 = 0.5	1.962
303 K, 101.33 kPa, x1 = 0.6	2.013
303 K, 101.33 kPa, x1 = 0.7	2.186
303 K, 101.33 kPa, x1 = 0.8	2.342
303 K, 101.33 kPa, x1 = 0.9	2.751
303.15 K, 100 kPa, x1 = 0.1195	2.083
303.15 K, 100 kPa, x1 = 0.2339	1.951
303.15 K, 100 kPa, x1 = 0.3649	1.857
303.15 K, 100 kPa, x1 = 0.4693	1.843
303.15 K, 100 kPa, x1 = 0.5498	1.878
303.15 K, 100 kPa, x1 = 0.6658	1.994
303.15 K, 100 kPa, x1 = 0.7945	2.261
303.15 K, 100 kPa, x1 = 0.9166	2.647
303.15 K, 101 kPa, x1 = 0.09983	2.049
303.15 K, 101 kPa, x1 = 0.1935	1.965
303.15 K, 101 kPa, x1 = 0.3051	1.941
303.15 K, 101 kPa, x1 = 0.4055	1.965
303.15 K, 101 kPa, x1 = 0.4837	2.01
303.15 K, 101 kPa, x1 = 0.6005	2.13
303.15 K, 101 kPa, x1 = 0.6946	2.248
303.15 K, 101 kPa, x1 = 0.8028	2.468
303.15 K, 101 kPa, x1 = 0.8996	2.745
308.15 K, 101 kPa, x1 = 0.09983	1.8
308.15 K, 101 kPa, x1 = 0.1935	1.734
308.15 K, 101 kPa, x1 = 0.3051	1.703
308.15 K, 101 kPa, x1 = 0.4055	1.722
308.15 K, 101 kPa, x1 = 0.4837	1.77
308.15 K, 101 kPa, x1 = 0.6005	1.857
308.15 K, 101 kPa, x1 = 0.6946	1.971
308.15 K, 101 kPa, x1 = 0.8028	2.144
308.15 K, 101 kPa, x1 = 0.8996	2.375
313.15 K, 100 kPa, x1 = 0.1195	1.605
313.15 K, 100 kPa, x1 = 0.2339	1.484
313.15 K, 100 kPa, x1 = 0.3649	1.39
313.15 K, 100 kPa, x1 = 0.4693	1.364
313.15 K, 100 kPa, x1 = 0.5498	1.393
313.15 K, 100 kPa, x1 = 0.6658	1.492
313.15 K, 100 kPa, x1 = 0.7945	1.709
313.15 K, 100 kPa, x1 = 0.9166	2.027
313.15 K, 101 kPa, x1 = 0.09983	1.568
313.15 K, 101 kPa, x1 = 0.1935	1.5
313.15 K, 101 kPa, x1 = 0.3051	1.44
313.15 K, 101 kPa, x1 = 0.4055	1.468
313.15 K, 101 kPa, x1 = 0.4837	1.529
313.15 K, 101 kPa, x1 = 0.6005	1.613
313.15 K, 101 kPa, x1 = 0.6946	1.709
313.15 K, 101 kPa, x1 = 0.8028	1.861
313.15 K, 101 kPa, x1 = 0.8996	2.048

OC[C@H]1O[C@@H]2O[C@H]3[C@H](O)[C@@H](O)[C@@H](O[C@H]4[C@H](O)[C@@H](O)[C@@H](O[C@H]5[C@H](O)[C@@H](O)[C@@H](O[C@H]6[C@H](O)[C@@H](O)[C@@H](O[C@H]7[C@H](O)[C@@H](O)[C@@H](O[C@H]8[C@H](O)[C@@H](O)[C@@H](O[C@H]1[C@H](O)[C@H]2O)O[C@@H]8CO)O[C@@H]7CO)O[C@@H]6CO)O[C@@H]5CO)O[C@@H]4CO)O[C@@H]3CO + O
viscosity [mPa·s], [1], 101 kPa
Conditions	298.15 K	310.15 K
x1 = 7.87e-06	0.8909	0.6934
x1 = 8.39e-06	0.891	0.6935
x1 = 1.613e-05	0.8917	0.6944
x1 = 1.679e-05	0.8918	0.6945
x1 = 3.14e-05	0.8931	0.6962
x1 = 6.268e-05	0.8961	0.6998
x1 = 6.666e-05	0.8964	0.7003
x1 = 0.0001254	0.9019	0.7071
x1 = 0.0001309	0.9024	0.7078
x1 = 0.0001573	0.9049	0.7109
x1 = 0.0001654	0.9057	0.7118
x1 = 0.0001906	0.908	0.7148
x1 = 0.0002383	0.9125	0.7203

CCCC(=O)OC + CCCCCCCC
[1], 101.33 kPa
Conditions	viscosity [mPa·s]
293.15 K, x1 = 0.0893	0.53
293.15 K, x1 = 0.137	0.525
293.15 K, x1 = 0.2169	0.519
293.15 K, x1 = 0.3101	0.514
293.15 K, x1 = 0.3906	0.514
293.15 K, x1 = 0.5062	0.516
293.15 K, x1 = 0.6094	0.522
293.15 K, x1 = 0.6977	0.529
293.15 K, x1 = 0.795	0.54
293.15 K, x1 = 0.8572	0.55
293.15 K, x1 = 0.9222	0.562
303.15 K, x1 = 0.1392	0.468
303.15 K, x1 = 0.2271	0.462
303.15 K, x1 = 0.315	0.459
303.15 K, x1 = 0.4073	0.458
303.15 K, x1 = 0.5146	0.459
303.15 K, x1 = 0.607	0.464
303.15 K, x1 = 0.6957	0.47
303.15 K, x1 = 0.7994	0.48
303.15 K, x1 = 0.8631	0.488
303.15 K, x1 = 0.9198	0.497
313.15 K, x1 = 0.07444	0.425
313.15 K, x1 = 0.1338	0.42
313.15 K, x1 = 0.2249	0.416
313.15 K, x1 = 0.3123	0.413
313.15 K, x1 = 0.3936	0.411
313.15 K, x1 = 0.4968	0.413
313.15 K, x1 = 0.6049	0.417
313.15 K, x1 = 0.6981	0.423
313.15 K, x1 = 0.8007	0.432
313.15 K, x1 = 0.866	0.439
313.15 K, x1 = 0.9319	0.448

Nc1ccccc1 + CS(C)=O
viscosity [mPa·s], [1], 101 kPa
Conditions	298.15 K	302.4 K	308.15 K	318.15 K
x2 = 0.0786	–	5.806	–	–
x2 = 0.1	3.83	–	2.841	2.194
x2 = 0.2	3.94	–	2.925	2.259
x2 = 0.2281	–	3.998	–	–
x2 = 0.3	3.99	–	2.98	2.3
x2 = 0.4	3.938	–	2.958	2.294
x2 = 0.4344	–	4.788	–	–
x2 = 0.5	3.756	–	2.839	2.232
x2 = 0.5614	–	5.863	–	–
x2 = 0.6	3.445	–	2.644	2.106
x2 = 0.6809	–	6.538	–	–
x2 = 0.7	3.055	–	2.397	1.938
x2 = 0.8	2.664	–	2.134	1.746
x2 = 0.8473	–	6.37	–	–
x2 = 0.9	2.313	–	1.886	1.529
